Laboratory results from US9587225B2, “Low-molecular-compound for improving production, maintenance and proliferation of pluripotent stem cells, composition comprising the same, and culture method” (KOREA RESEARCH INSTITUTE OF BIOSCIENCE AND BIOTECHNOLOGY, priority 2012, dated 2017).

Key:
Format in all cases: cell-based
[1] = test system: Mouse embryonic fibroblasts (OG2-MEF; hemizygous for the Oct4-GFP transgene); assay: Reprogramming of mouse embryonic fibroblasts, Oct4-GFP colony count
Protocol: FIG. 1 is a process of screening mouse cell reprogramming factors using analog library screening of novel trans-3-indoleacrylic acid-based compounds. In order to screen low-molecular-weight compounds that promote the production of reprogrammed stem cells, mouse embryonic stem cells (OG2-MEF; hemizygous for the Oct4-GFP transgene) were transduced with reprogramming viruses (Oct4, Sox2, Klf4, and c-Myc). After 5 days, the cells were seeded on gelatin-coated plates and then cultured in mouse embryonic stem cell culture media containing each of low-molecular-weight compounds until colonies having a morphology similar to that of mouse embryonic stem cells were formed. After 15 days, the number of colonies expressing endogenous Oct4 GFP fluorescence was measured, and compounds that increased the efficiency of reprogramming compared to that of a control group were selected. […] Oct4 (O), Sox2 (S), Klf4 (K), and cMyc (M). FIG. 1B is a graph showing the increase in efficiency of reprogramming by RSC-133 and ID-558 among screened compounds. The values shown on the graph are mean values. The data are expressed as mean±SD (n=3).
The OSKM reprogramming factor virus was produced according to the method of Example 3. […] At 15 days after the transfection, the number of either colonies showing AP activity or colonies expressing endogenous Oct4 GFP fluorescence was measured to determine the efficiency of reprogramming.
To discover low-molecular-weight compounds that are involved in the reprogramming process, analog library screening of novel trans-3-indoleacrylic acid-based compounds was performed in mouse cells. Mouse embryonic fibroblasts (OG2-MEF: hemizygous for the Oct4-GFP transgene) were transfected with reprogramming viruses of Oct4, Sox2, Klf4 and c-Myc (OSKM), and after 5 days, the cells were seeded on gelatin-coated 12-well plates and incubated with mouse embryonic stem cell culture medium containing each of low-molecular-weight compounds until colonies having a morphology similar to that mouse stem cells were formed so that endogenous Oct4 GFP fluorescence was expressed (FIG. 1A). […]

human skin fibroblasts [2] = assay: BrdU immunocytochemical analysis of proliferating cell population
Protocol: Immunocytochemical analysis was performed using monoclonal antibody for bromodeoxyuridine (BrdU), and then percent BrdU positive cells are graphically shown. The values shown on the graph are mean values. The data are expressed as ±SD (n=3) (*P<0.05, by t-test).
The left panel is a set of graphs showing the results of immunocytochemical analysis performed using monoclonal antibody for BrdU, and the right panel is a graph showing the results of measurement of percent BrdU positive cells. The values shown on the graph are mean values. The data are expressed as mean±SD (n=3).
For immunostaining, cells were seeded on Matrigel-coated 4-well Lab-Tek chamber slides (Nunc, Naperville, Ill.) and cultured for 5 days under the indicated conditions. The cells were fixed in 4% paraformaldehyde at room temperature for 15 minutes, and then washed with PBS/0.2% BSA. Next, the cells were passed through PBS/0.2% BSA/0.1% Triton X-100 for 15 minutes, and then incubated with 4% normal donkey serum (Molecular Probes, Eugene, Oreg., USA) in PBS/0.2% BSA at room temperature for 1 hour. The cells were diluted with PBS/0.2% BSA, and then reacted with primary antibody at 4° C. for 2 hours. After washing, the cells were reacted with FITC- or Alexa594-conjugated secondary antibody (Invitrogen) in PBS/0.2% BSA at room temperature for 1 hour. The cells were counter-stained with 10 μg/ml DAPI. […]

human skin fibroblasts [3] = assay: SA-β-gal senescence assay during reprogramming; details: 10 days after induction of reprogramming, compared to untreated control (OSKM alone) (FIG. 17)
[4] = biological target: T1, DNA methyl transferase 1 (DNMT1) (Homo sapiens, UniProt P26358); assay: DNMT1 activity during reprogramming; details: 10 days after induction of reprogramming, compared to untreated control (OSKM alone) (FIG. 20)
T1 construct: endogenous in cells; host or cells: human skin (foreskin) fibroblasts (hFF, ATCC CRL-2097) transduced with OSKM retrovirus
Excerpt: For comparison, the activity of DNMT1 in the absence of RSC-133 was set at 100%.
RSC133 regulates the activities of epigenetic regulators such as DNA methyltransferase (DNMT) and histone deacetylase (HDAC). At 10 days after induction of reprogramming by RSC133, the activity of DNMT1 was reduced by about 38% compared to that in an untreated control group (OSKM alone) (FIG. 20). Epigenetic chromatin remolding by DNA methylation and/or histone modification plays an important in a wide range of transcriptional regulation in the reprogramming process. […] The increased level of H3K9 histone acetylation (ace) is particularly associated with the restoration of pluripotency and reprogramming ability. It is known that DNA methylation by DNMT1 has a close connection with the change in chromatin status caused by HDAC activity.

[5] = test system: human skin fibroblasts (hFFs); assay: Reprogramming of human skin fibroblasts, AP-positive colony count

T1 sequence (P26358 whole entry): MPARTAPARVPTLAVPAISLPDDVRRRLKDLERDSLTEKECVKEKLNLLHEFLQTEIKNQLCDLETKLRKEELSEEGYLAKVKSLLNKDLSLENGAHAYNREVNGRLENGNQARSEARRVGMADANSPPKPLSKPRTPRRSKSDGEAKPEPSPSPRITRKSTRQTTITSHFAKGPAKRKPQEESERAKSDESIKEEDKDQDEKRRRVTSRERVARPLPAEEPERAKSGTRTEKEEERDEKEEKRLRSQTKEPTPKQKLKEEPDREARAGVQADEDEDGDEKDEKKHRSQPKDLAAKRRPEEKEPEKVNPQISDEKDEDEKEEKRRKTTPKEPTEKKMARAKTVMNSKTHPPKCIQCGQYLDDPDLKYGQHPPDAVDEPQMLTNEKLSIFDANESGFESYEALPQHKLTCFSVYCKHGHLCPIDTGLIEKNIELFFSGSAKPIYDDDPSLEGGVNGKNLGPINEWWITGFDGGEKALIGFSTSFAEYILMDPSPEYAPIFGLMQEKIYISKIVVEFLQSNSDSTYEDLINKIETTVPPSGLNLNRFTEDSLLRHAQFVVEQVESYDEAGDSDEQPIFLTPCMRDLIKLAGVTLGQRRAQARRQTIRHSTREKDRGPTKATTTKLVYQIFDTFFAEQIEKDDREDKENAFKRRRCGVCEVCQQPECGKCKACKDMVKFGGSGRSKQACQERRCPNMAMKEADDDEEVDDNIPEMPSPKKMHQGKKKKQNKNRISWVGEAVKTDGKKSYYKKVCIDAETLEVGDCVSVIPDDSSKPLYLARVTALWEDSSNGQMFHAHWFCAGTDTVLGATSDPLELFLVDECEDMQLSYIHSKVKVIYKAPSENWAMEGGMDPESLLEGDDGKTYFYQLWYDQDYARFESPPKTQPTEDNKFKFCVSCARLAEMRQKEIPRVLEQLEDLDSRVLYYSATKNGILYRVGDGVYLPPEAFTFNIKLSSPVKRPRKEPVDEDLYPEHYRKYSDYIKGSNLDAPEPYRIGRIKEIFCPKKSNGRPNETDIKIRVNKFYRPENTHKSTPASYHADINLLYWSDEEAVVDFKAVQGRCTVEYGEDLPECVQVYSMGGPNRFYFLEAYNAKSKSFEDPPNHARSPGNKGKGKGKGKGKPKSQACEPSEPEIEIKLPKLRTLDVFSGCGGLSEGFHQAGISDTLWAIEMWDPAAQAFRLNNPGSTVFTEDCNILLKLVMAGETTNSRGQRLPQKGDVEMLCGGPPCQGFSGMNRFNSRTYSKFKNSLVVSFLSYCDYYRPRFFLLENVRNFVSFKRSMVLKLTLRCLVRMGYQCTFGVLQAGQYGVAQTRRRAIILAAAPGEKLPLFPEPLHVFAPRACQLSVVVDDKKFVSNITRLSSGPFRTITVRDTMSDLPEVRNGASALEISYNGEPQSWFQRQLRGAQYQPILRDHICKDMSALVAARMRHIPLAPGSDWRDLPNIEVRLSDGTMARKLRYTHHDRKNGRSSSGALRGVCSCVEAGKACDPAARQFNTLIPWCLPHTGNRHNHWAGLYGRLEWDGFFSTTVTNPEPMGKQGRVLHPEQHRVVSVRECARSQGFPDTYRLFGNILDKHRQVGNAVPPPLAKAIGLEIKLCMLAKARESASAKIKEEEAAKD

`NC(=O)c1cccc(NC(=O)/C=C/c2c[nH]c3ccccc23)c1` [RSC-133, 3-[3-(1H-indol-3-yl)-acrylamido]-benzamide] was tested, and the “efficiency of reprogramming (number of colonies expressing endogenous Oct4 GFP fluorescence)” value ([1]; OG2-MEF transfected with OSKM, after 15 days, compared to control group) was “showed the effect of increasing the efficiency of reprogramming”, the “efficiency of reprogramming compared to reported compounds” value ([1]; vs 5-Azacytidine, BIX-01294, VPA or increased MOI of OSKM virus (FIG. 2a)) was “greatly increased the efficiency of reprogramming” and the “BrdU-positive cell population, reprogramming not induced” value (human skin fibroblasts [2]; OSKM-transfected human skin fibroblasts, reprogramming not induced (FIG. 14)) was “increased BrdU-positive cell population”. The “BrdU-positive cell population during the reprogramming process” value (human skin fibroblasts [2]; during reprogramming (FIG. 13)) was “increased BrdU-positive cell population”, the “decrease of the ratio of SA-β-gal-positive cells” value (human skin fibroblasts [3]) was 37.23% and the “reduction of the activity of DNMT1” value [4] was “about 38%”. For the same compound, the “substitution for reprogramming factor c-Myc, compound alone” value ([5]; RSC-133 alone, AP-positive colonies (FIG. 5)) was “did not show the substituting effect”, the “substitution for reprogramming factor c-Myc, in combination with sodium butyrate” value ([5]; RSC-133 in combination with sodium butyrate (NaB), compared to control group (FIG. 5)) was “substituted for c-Myc factor to increase the efficiency of reprogramming” and the “efficiency of reprogramming, treatment in the initial stage” value ([5]; initial stage (including 5 days after viral infection), compared to other periods of equal length (FIG. 10)) was “significantly increased”.
